Assay results published in ChEMBL document CHEMBL1128353, “A novel approach to dual-acting thromboxane receptor antagonist/synthase inhibitors based on the link of 1,3-dioxane-thromboxane receptor antagonists and -thromboxane synthase inhibitors” (J Med Chem, 1995).
pIC50: −log10 of the molar value.

Legend:
Homo sapiens = species on record: Homo sapiens; assay: Antagonistic activity against human platelet aggregation induced by U-46,619.; assay type: functional, organism-based; conditions: read-out: pA2 (converted)
Thromboxane-A synthase = molecular target: T1, Thromboxane-A synthase (Homo sapiens, UniProt P24557); assay: In vitro inhibitory activity against human microsomal thromboxane synthase.
T1 sequence (P24557 whole entry): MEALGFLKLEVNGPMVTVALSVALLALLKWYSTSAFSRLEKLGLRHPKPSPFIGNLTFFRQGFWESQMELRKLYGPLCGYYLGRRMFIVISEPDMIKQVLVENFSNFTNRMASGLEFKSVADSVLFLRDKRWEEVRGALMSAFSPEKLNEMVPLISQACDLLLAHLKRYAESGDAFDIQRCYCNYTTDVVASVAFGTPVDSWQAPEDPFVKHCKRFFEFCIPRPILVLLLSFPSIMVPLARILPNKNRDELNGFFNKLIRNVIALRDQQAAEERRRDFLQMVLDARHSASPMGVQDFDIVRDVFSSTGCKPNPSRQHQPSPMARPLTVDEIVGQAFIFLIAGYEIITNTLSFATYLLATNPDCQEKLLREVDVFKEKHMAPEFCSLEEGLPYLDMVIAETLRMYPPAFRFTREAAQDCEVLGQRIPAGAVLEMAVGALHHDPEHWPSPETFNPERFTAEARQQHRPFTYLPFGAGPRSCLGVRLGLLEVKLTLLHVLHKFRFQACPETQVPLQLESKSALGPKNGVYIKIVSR

Rattus norvegicus [1] = assay: Compound at an oral dose of 10 mg/Kg was tested ex vivo in rat after 5 hr against platelet aggregation induced by U-46,619; assay type: functional, organism-based; conditions: read-out: pA2 (converted)
Canis familiaris [2] = assay: Compound at an oral dose of 1 mg/Kg was tested ex vivo after 3 hr for inhibition of thromboxane synthase in dog; assay type: functional; conditions: Canis lupus familiaris
Rattus norvegicus [3] = assay: Compound at an oral dose of 10 mg/Kg was tested ex vivo after 1 hr for inhibition of thromboxane synthase in rat; assay type: functional
Canis familiaris [4] = assay: Compound at an oral dose of 1 mg/Kg was tested ex vivo after 5 hr for inhibition of thromboxane synthase in dog; assay type: functional; conditions: Canis lupus familiaris
Rattus norvegicus [5] = assay: Compound at an oral dose of 10 mg/Kg was tested ex vivo after 5 hr for inhibition of thromboxane synthase in rat; assay type: functional
Rattus norvegicus [6] = assay: Compound at an oral dose of 10 mg/Kg was tested ex vivo after 3 hr for inhibition of thromboxane synthase in rat; assay type: functional
Canis familiaris [7] = assay: Compound at an oral dose of 1 mg/Kg was tested ex vivo after 1 hr for inhibition of thromboxane synthase in dog; assay type: functional; conditions: Canis lupus familiaris

pIC50 (Thromboxane-A synthase)	Compound	Kb (Homo sapiens)	further results
< 5.00	O=C(O)CC/C=C\C[C@@H]1CO[C@H](c2cncc(/C(=C\CCCCC(=O)O)c3ccccc3)c2)O[C@@H]1c1ccccc1O	25.1 nM	
7.30	O=C(O)CC/C=C\C[C@@H]1CO[C@H](c2ccc(OCCOc3ccc(/C(=C\CCCCC(=O)O)c4cccnc4)cc3)cc2)O[C@@H]1c1ccccc1O	631 nM	
7.52	O=C(O)CC/C=C\C[C@@H]1CO[C@H](c2cccc(OCCOc3cc(C(=O)O)ccc3OCCn3ccnc3)c2)O[C@@H]1c1ccccc1O	158 nM	
7.52	O=C(O)CC/C=C\C[C@@H]1CO[C@H](c2ccccc2OCCOc2cc(C(=O)O)ccc2OCCn2ccnc2)O[C@@H]1c1ccccc1O	1260 nM	
5.42	O=C(O)CC/C=C\C[C@@H]1CO[C@H](c2ccc(OCCn3ccnc3)c(C(=O)O)c2)O[C@@H]1c1ccccc1O	1260 nM	
8.00	O=C(O)CC/C=C\C[C@@H]1CO[C@H](CCCCCOc2ccc(/C(=C\CCCCC(=O)O)c3cccnc3)cc2)O[C@@H]1c1ccccc1O	200 nM	
< 4.00	O=C(O)CC/C=C\C[C@@H]1CO[C@H](c2ccccc2Cl)O[C@@H]1c1ccccc1O	3.16 nM	Kb (Rattus norvegicus [1]): 100 nM
7.40	O=C(O)CC/C=C\C[C@@H]1CO[C@H](c2cccc(OCCOc3ccc(/C(=C\CCCCC(=O)O)c4cccnc4)cc3)c2)O[C@@H]1c1ccccc1O	794 nM	
7.52	O=C(O)CC/C=C\C[C@@H]1CO[C@H](CCOc2ccc(/C(=C\CCCCC(=O)O)c3cccnc3)cc2)O[C@@H]1c1ccccc1O	200 nM	
7.15	O=C(O)CC/C=C\C[C@@H]1CO[C@H](c2cccc(OCCCCCCOc3ccc(/C(=C\CCCCC(=O)O)c4cccnc4)cc3)c2)O[C@@H]1c1ccccc1O	100 nM	
< 5.00	O=C(O)CC/C=C\C[C@@H]1CO[C@H](c2cncc(/C(=C/CCCCC(=O)O)c3ccccc3)c2)O[C@@H]1c1ccccc1O	39.8 nM	
8.00	O=C(O)CC/C=C\C[C@@H]1CO[C@H](c2ccc(COc3cccc(/C(=C\CCCCC(=O)O)c4cccnc4)c3)cc2)O[C@@H]1c1ccccc1O	100 nM	
7.40	O=C(O)CC/C=C\C[C@@H]1CO[C@H](c2ccc(/C(=C\CCCCC(=O)O)c3cccnc3)cc2)O[C@@H]1c1ccccc1O	100 nM	
7.22	O=C(O)CC/C=C\C[C@@H]1CO[C@H](c2ccc(OCCOc3cc(C(=O)O)ccc3OCCn3ccnc3)cc2)O[C@@H]1c1ccccc1O	501 nM	
7.22	O=C(O)CC/C=C\C[C@@H]1CO[C@H](CCCCCOc2cc(C(=O)O)ccc2OCCn2ccnc2)O[C@@H]1c1ccccc1O	1260 nM	
7.52	O=C(O)CC/C=C\C[C@@H]1CO[C@H](c2ccccc2OCCOc2ccc(/C(=C\CCCCC(=O)O)c3cccnc3)cc2)O[C@@H]1c1ccccc1O	158 nM	
7.40	O=C(O)CC/C=C\C[C@@H]1CO[C@H](CCCCCCCCCCOc2ccc(/C(=C\CCCCC(=O)O)c3cccnc3)cc2)O[C@@H]1c1ccccc1O	2510 nM	

The remaining lines, values behind:

Compound	pIC50 (Thromboxane-A synthase)	Kb (Homo sapiens)	further results
CC(C)(CCCCOc1ccc(/C(=C\CCCCC(=O)O)c2cccnc2)cc1)[C@H]1OC[C@@H](C/C=C\CCC(=O)O)[C@@H](c2ccccc2O)O1	7.52	251 nM	
O=C(O)CC/C=C\C[C@@H]1CO[C@H](c2ccc3cc(/C(=C\CCCCC(=O)O)c4cccnc4)ccc3c2)O[C@@H]1c1ccccc1O	7.30	251 nM	
O=C(O)CC/C=C\C[C@@H]1CO[C@H](COc2cc(C(=O)O)ccc2OCCn2ccnc2)O[C@@H]1c1ccccc1O	5.77	3160 nM	
O=C(O)CC/C=C\C[C@@H]1CO[C@H](c2ccc(OCCCCCCOc3cc(C(=O)O)ccc3OCCn3ccnc3)cc2)O[C@@H]1c1ccccc1O	7.40	158 nM	
CC(C)(c1ccc(/C(=C\CCCCC(=O)O)c2cccnc2)cc1)[C@H]1OC[C@@H](C/C=C\CCC(=O)O)[C@@H](c2ccccc2O)O1	7.52	251 nM	
CC(C)(CCCCCc1ccc(/C(=C\CCCCC(=O)O)c2cccnc2)cc1)[C@H]1OC[C@@H](C/C=C\CCC(=O)O)[C@@H](c2ccccc2O)O1	8.00	501 nM	
O=C(O)CC/C=C\C[C@@H]1CO[C@H](c2ccc(COc3ccc(/C(=C\CCCCC(=O)O)c4cccnc4)cc3)cc2)O[C@@H]1c1ccccc1O	7.70	200 nM	
O=C(O)CC/C=C\C[C@@H]1CO[C@H](C(CCC/C=C(/c2ccccc2)c2cccnc2)C(=O)O)O[C@@H]1c1ccccc1O (stereo partly drawn)	7.40	> 10000 nM	
O=C(O)CC/C=C\C[C@@H]1CO[C@H](c2cccc(COc3ccc(/C(=C\CCCCC(=O)O)c4cccnc4)cc3)c2)O[C@@H]1c1ccccc1O	7.40	200 nM	
O=C(O)CC/C=C\C[C@@H]1CO[C@H](c2ccc(CCOc3ccc(/C(=C\CCCCC(=O)O)c4cccnc4)cc3)cc2)O[C@@H]1c1ccccc1O	7.30	631 nM	
O=C(O)CCCC/C=C(\c1ccccc1)c1cccnc1 [(E)-ISBOGREL]		> 10000 nM	inhibition in vivo at 1 mg/kg (Canis familiaris [2]): 83%; inhibition in vivo at 10 mg/kg (Rattus norvegicus [3]): 97%; inhibition in vivo at 1 mg/kg (Canis familiaris [4]): 82%; inhibition in vivo at 10 mg/kg (Rattus norvegicus [5]): 87%; inhibition in vivo at 10 mg/kg (Rattus norvegicus [6]): 97%; inhibition in vivo at 1 mg/kg (Canis familiaris [7]): 93%
O=C(O)c1ccc(OCCn2ccnc2)cc1 [DAZOXIBEN]		> 10000 nM	inhibition in vivo at 1 mg/kg (Canis familiaris [2]): 91%; inhibition in vivo at 10 mg/kg (Rattus norvegicus [3]): 86%; inhibition in vivo at 1 mg/kg (Canis familiaris [4]): 77%; inhibition in vivo at 10 mg/kg (Rattus norvegicus [6]): 87%; inhibition in vivo at 1 mg/kg (Canis familiaris [7]): 73%
